Measurements from PubChem BioAssay (NCI).
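Protocol summary: plate cells (96-well), add compound at 5 concentrations, incubate 48 h, interpolate endpoints linearly. TGI is the concentration that stops growth completely.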

How the values were obtained:
Experiment in all cases: NCI-60 cell line screen, 48 h
PC-3 prostate = tested on: PC-3 prostate
OVCAR-4 ovarian = tested on: OVCAR-4 ovarian
RXF 393 renal = tested on: RXF 393 renal
CCRF-CEM leukemia = tested on: CCRF-CEM leukemia
SW-620 colon = tested on: SW-620 colon
SK-MEL-5 melanoma = tested on: SK-MEL-5 melanoma
MALME-3M melanoma = tested on: MALME-3M melanoma
K-562 leukemia = tested on: K-562 leukemia
DU-145 prostate = tested on: DU-145 prostate
SK-MEL-28 melanoma = tested on: SK-MEL-28 melanoma

Row | SMILES | TGI (PC-3 prostate) | TGI (OVCAR-4 ovarian) | TGI (RXF 393 renal) | TGI (CCRF-CEM leukemia) | TGI (SW-620 colon) | TGI (SK-MEL-5 melanoma) | TGI (MALME-3M melanoma) | TGI (K-562 leukemia) | TGI (DU-145 prostate) | TGI (SK-MEL-28 melanoma)
1 | CC(=O)NC1=CC(=O)C=C(Cl)C1=O | > 100 µM | 37.7 µM | > 100 µM | 57.8 µM | 37 µM | > 100 µM | 66 µM | 93.6 µM | > 100 µM | > 100 µM
2 | CCOC(=O)C(C(=O)OCC)C(NC(=O)Nc1cc(C(F)(F)F)ccc1OC)(C(F)(F)F)C(F)(F)F | > 100 µM | 98.6 µM | 62.3 µM | 70.9 µM | > 100 µM | 39.6 µM | 51.2 µM | 74.5 µM | > 100 µM | > 100 µM
3 | O=C(CSCC(=O)N/N=C/c1ccncc1)N/N=C/c1ccncc1 | > 100 µM | > 100 µM | > 100 µM | > 100 µM | > 100 µM | > 100 µM | > 100 µM | > 100 µM | > 100 µM | > 100 µM
4 | CC(=O)Nc1ccc2c3c(cc(O)c2c1)N(C(=O)CCCCCC(=O)Nc1ccc2c4c(cc(O)c2c1)N(C(=O)OC(C)(C)C)CC4CCl)CC3CCl (stereo not given) | > 50.2 µM | > 63.6 µM | 2.69 µM | 0.648 µM | > 100 µM | 2.98 µM | 8.98 µM | > 100 µM | 3.12 µM | > 63.2 µM
5 | Cc1ccc2nnc(NS(=O)(=O)c3cc(C)c(Cl)cc3S)n2n1 | > 100 µM | > 100 µM | > 100 µM | > 100 µM | > 100 µM | > 100 µM | > 100 µM | > 100 µM | > 100 µM | > 100 µM
6 | Nc1c(O)c(C(=O)O)cc2ccccc12 | > 100 µM | 48.9 µM | > 100 µM | > 100 µM | 32.3 µM | 27.9 µM | 29.6 µM | 85.9 µM | 35.9 µM | > 100 µM
7 | Cc1cc(C)nc(NS(=O)(=O)c2ccc(NC(=O)c3ccc4nc5ccccc5c(Nc5ccc(S(=O)(=O)Nc6nc(C)cc(C)n6)cc5)c4c3)cc2)n1 | > 100 µM | > 100 µM | > 100 µM | > 100 µM | > 100 µM | > 100 µM | > 100 µM | > 100 µM | > 100 µM | > 100 µM
8 | COc1cc(C2SC(N)=Nc3c2c(C)nn3C(=O)c2ccc(Cl)cc2)ccc1O (stereo not given) | > 10 µM | > 10 µM | > 10 µM | > 10 µM | > 10 µM | > 10 µM | > 10 µM | > 10 µM | > 10 µM | > 10 µM
9 | O=c1cc(-c2cccc(Br)c2)[nH]c2cc3c(cc12)OCO3 | > 100 µM | > 100 µM | 14.3 µM | > 100 µM | > 100 µM | 9.73 µM | 17.2 µM | > 100 µM | 18.1 µM | > 100 µM
10 | Cc1c(C=C(C#N)C#N)c(=O)n(C)c(=O)n1C | > 100 µM | > 100 µM | > 100 µM | 94.8 µM | > 100 µM | > 100 µM | > 100 µM | > 100 µM | > 100 µM | > 100 µM
11 | C/C(CC(O)(C(F)(F)F)C(F)(F)F)=N/Nc1ccc([N+](=O)[O-])cc1[N+](=O)[O-] | > 10 µM | > 10 µM | 7.53 µM | > 10 µM | > 10 µM | 4 µM | > 10 µM | 9.56 µM | > 10 µM | > 10 µM
12 | COC(=O)c1ccccc1Nc1ccccc1C(=O)OC | > 100 µM | > 100 µM | > 100 µM | > 100 µM | > 100 µM | > 100 µM | 96.8 µM | > 100 µM | > 100 µM | > 100 µM
13 | CCO/N=C(/CC)c1ccc(Br)s1 | > 100 µM | > 100 µM | > 100 µM | > 100 µM | > 100 µM | > 100 µM | > 100 µM | > 100 µM | > 100 µM | > 100 µM
14 | Cc1ccc(S(=O)(=O)N/N=C2\CC3C4CCC3C2C4)cc1 (stereo not given) | > 100 µM | > 100 µM | > 100 µM | > 100 µM | > 100 µM | > 100 µM | > 100 µM | > 100 µM | > 100 µM | > 100 µM
15 | NC1=CN(Cc2ccccc2)C2=N/C(=C\c3ccco3)C(=O)N12 | > 100 µM | > 100 µM | > 100 µM | > 100 µM | > 100 µM | > 100 µM | > 100 µM | > 100 µM | > 100 µM | > 100 µM
16 | N#C/C=C\c1ccc(-c2cc(C(F)(F)F)cc(C(F)(F)F)c2)o1 | > 100 µM | > 100 µM | > 100 µM | > 100 µM | > 100 µM | 43.1 µM | > 100 µM | > 100 µM | > 100 µM | > 100 µM
17 | NNC(=O)CSc1nnc(CCCCCCCCc2nnc(SCC(=O)NN)o2)o1 | > 100 µM | > 100 µM | > 100 µM | > 100 µM | > 100 µM | > 100 µM | > 100 µM | > 100 µM | > 100 µM | > 100 µM
18 | Cc1cccc2c(=O)c3c(O)cc4c(c3n(C)c12)C=CC(C)(C)O4 | > 100 µM | > 100 µM | 38 µM | > 100 µM | > 100 µM | > 100 µM | > 100 µM | 48 µM | > 100 µM | > 100 µM
